From patent publication US20140120087A1, “TRIAZOLOPYRIDINES” (BAYER INTELLECTUAL PROPERTY GMBH, priority 2011, published 2014)

Columns and labels:
Mps-1 kinase [1] = target: T1, Mps-1 kinase (Homo sapiens, UniProt P33981); assay: Mps-1 kinase assay with 2 mM ATP (TR-FRET)
T1 sequence (P33981 1-857): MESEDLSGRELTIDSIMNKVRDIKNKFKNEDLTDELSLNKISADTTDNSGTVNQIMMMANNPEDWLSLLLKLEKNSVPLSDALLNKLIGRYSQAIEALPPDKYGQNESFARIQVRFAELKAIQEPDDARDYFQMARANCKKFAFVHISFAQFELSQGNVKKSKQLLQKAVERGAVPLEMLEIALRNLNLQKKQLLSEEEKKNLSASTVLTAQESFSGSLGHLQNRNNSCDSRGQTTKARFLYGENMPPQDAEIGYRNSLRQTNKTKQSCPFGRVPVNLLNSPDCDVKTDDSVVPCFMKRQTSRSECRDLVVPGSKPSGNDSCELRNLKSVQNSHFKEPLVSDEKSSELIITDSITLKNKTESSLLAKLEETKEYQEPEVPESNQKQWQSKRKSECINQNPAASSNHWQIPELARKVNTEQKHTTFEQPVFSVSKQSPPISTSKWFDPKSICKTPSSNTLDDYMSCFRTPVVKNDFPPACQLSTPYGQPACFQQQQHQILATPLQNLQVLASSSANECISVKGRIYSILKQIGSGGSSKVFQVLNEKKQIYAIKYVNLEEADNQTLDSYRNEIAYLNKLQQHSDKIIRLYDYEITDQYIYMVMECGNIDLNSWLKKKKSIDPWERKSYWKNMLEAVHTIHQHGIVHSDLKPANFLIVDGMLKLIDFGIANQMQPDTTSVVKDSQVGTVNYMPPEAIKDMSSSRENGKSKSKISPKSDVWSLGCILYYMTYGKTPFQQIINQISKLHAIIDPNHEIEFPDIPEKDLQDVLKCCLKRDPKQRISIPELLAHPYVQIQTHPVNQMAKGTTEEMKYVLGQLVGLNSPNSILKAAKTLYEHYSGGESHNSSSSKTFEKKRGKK

Mps-1 kinase [2] = target: T1, Mps-1 kinase; assay: Mps-1 kinase assay with 10 μM ATP (TR-FRET)

Row | IC50 (Mps-1 kinase [1]) | IC50 (Mps-1 kinase [2]) | SMILES
1 | 6.1 nM | ≤ 1 nM | CCS(=O)(=O)c1ccc(Nc2nc3ccc(-c4ccc(C(=O)NCc5ccc(F)cc5)cc4)cn3n2)c(OC(F)F)c1 [Example 12.61, 4-(2-{[2-(difluoromethoxy)-4-(ethylsulfonyl)phenyl]-amino}[1,2,4]triazolo[1,5-a]pyridin-6-yl)-N-(4-fluorobenzyl)benzamide]
2 | 26 nM | ≤ 1 nM | O=C(NCc1ccc(F)cc1)c1ccc(-c2ccc3nc(Nc4ccc(F)cc4OC(F)F)nn3c2)cc1 [Example 12.63, 4-(2-{[2-(difluoromethoxy)-4-fluorophenyl]amino}-[1,2,4]triazolo[1,5-a]pyridin-6-yl)-N-(4-fluoro-benzyl)benzamide]
3 | 1.1 nM | ≤ 1 nM | COc1cc(C(C)(C)O)ccc1Nc1nc2ccc(-c3ccc(C(=O)NCc4ccc(F)cc4)cc3)cn2n1 [Example 12.54, N-(4-fluorobenzyl)-4-(2-{[4-(2-hydroxypropan-2-yl)-2-methoxyphenyl]amino}-[1,2,4]triazolo[1,5-a]pyridin-6-yl)benzamide]
4 | ≤ 1 nM | ≤ 1 nM | CC(C)(CO)NC(=O)c1ccc(Nc2nc3ccc(-c4ccc(NC(=O)Cc5ccc(F)cc5)cc4)cn3n2)c(OCC(F)(F)F)c1 [Example 12.22, 4-{[6-(4-{[(4-fluorophenyl)-acetyl]amino}phenyl)[1,2,4]triazolo[1,5-a]pyridin-2-yl]amino}-N-(1-hydroxy-2-methylpropan-2-yl)-3-(2,2,2-trifluoroethoxy)benzamide]
5 | 12 nM | ≤ 1 nM | COc1cc(S(C)(=O)=O)ccc1Nc1nc2ccc(-c3ccc(NC(=O)Cc4ccccc4)cc3)cn2n1 [Example 12.42, N-[4-(2-{[2-methoxy-4-(methylsulfonyl)phenyl]-amino}[1,2,4]triazolo[1,5-a]pyridin-6-yl)phenyl]-2-phenylacetamide]
6 | 2.3 nM | ≤ 1 nM | Cc1cc(C(=O)NCC(F)(F)F)ccc1Nc1nc2ccc(-c3ccc(NC(=O)Cc4ccc(F)cc4)cc3)cn2n1 [Example 12.29, 4-{[6-(4-{[(4-fluorophenyl)-acetyl]amino}phenyl)[1,2,4]triazolo[1,5-a]pyridin-2-yl]amino}-3-methyl-N-(2,2,2-trifluoroethyl)-benzamide]
7 | 5 nM | ≤ 1 nM | NC(=O)c1ccc(Nc2nc3ccc(-c4ccc(C(=O)NCc5ccc(F)cc5)cc4)cn3n2)c(OC(F)(F)F)c1 [Example 12.60, 4-[(6-{4-[(4-fluorobenzyl)-carbamoyl]phenyl}[1,2,4]triazolo [1,5-K]pyridin-2-yl)-amino]-3-(trifluoro-methoxy)benzamide]
8 | 11 nM | ≤ 1 nM | Cc1ccc(CNC(=O)c2ccc(-c3ccc4nc(Nc5ccc(S(C)(=O)=O)cc5C)nn4c3)cc2)cc1 [Example 12.77, N-(4-methylbenzyl)-4-(2-{[2-methyl-4-(methylsulfonyl)-phenyl]amino}[1,2,4]triazolo [1,5-a]pyridin-6-yl)-benzamide]
9 | 3.4 nM | ≤ 1 nM | COc1cc(C(=O)N(C)CCN(C)C)ccc1Nc1nc2ccc(-c3ccc(C(=O)NCc4ccc(F)cc4)cc3)cn2n1 [Example 12.49, N-[2-(dimethylamino)ethyl]-4-[(6-{4-[(4-fluorobenzyl)-carbamoyl]phenyl}[1,2,4]triazolo [1,5-a]pyridin-2-yl)-amino]-3-methoxy-N-methylbenzamide]
10 | 2.2 nM | ≤ 1 nM | COc1cc(CO)ccc1Nc1nc2ccc(-c3ccc(C(=O)NCc4ccc(F)cc4)cc3)cn2n1 [Example 12.85, N-(4-fluorobenzyl)-4-(2-{[4-(hydroxymethyl)-2-methoxyphenyl]amino}-[1,2,4]triazolo[1,5-α]pyridin-6-yl)benzamide]
11 | 7.2 nM | ≤ 1 nM | COc1cc(S(C)(=O)=O)ccc1Nc1nc2ccc(-c3ccc(NC(=O)Cc4ccc(Cl)cc4)cc3)cn2n1 [Example 12.41, 2-(4-chlorophenyl)-N-[4-(2-{[2-methoxy-4-(methyl-sulfonyl)phenyl]amino}-[1,2,4]triazolo[1,5-a]pyridin-6-yl)phenyl]acetamide]
